Assay results: patent US20260176300A1, “N-ARYLPYRAZOLE NOD2 AGONISTS AS PROMOTERS OF IMMUNE CHECKPOINT INHIBITOR THERAPY” (THE SCRIPPS RESEARCH INSTITUTE, priority 2022, published 2026)
Entries after “also recorded” stand apart in the source; their conditions may differ.

Legend:
[1] = system: human peripheral mononuclear blood cells (PBMCs); experiment: Cytokine release assay in primary human PBMCs; format: cell-based; conditions: 10 μM, 24 h
Procedure: (§1) FIG. 3(A-H). NOD2 agonist TT030 activates cytokine production in vitro and improves immune checkpoint inhibitor treatment of tumor growth in vivo. A-D, Measurements of secreted cytokine levels from human peripheral mononuclear blood cells (PMBCs) treated with the indicated compounds for 24 h without or with lipopolysaccharide (LPS). E, Structures of TT030 and its enantiomer (TT030-ent). F, Activation of NOD1- and NOD2-expressing HEK-293T cells with the indicated compounds. C12-iE-DAP is a lipophilic version of the NOD1 agonist, iE-DAP. G, Growth profiles of B16-F10 subcutaneous tumors in wild-type C57BL/6 mice treated with 100 μg α-PD-L1 and 100 μg of the indicated compounds every other day starting at Day 7. H, Growth profiles of B16-F10 subcutaneous tumors in wild-type or Nod2^−/− C57BL/6 mice treated with 100 μg α-PD-L1 and 100 μg TT030 every other day starting at Day 7. Cytokine secretion assays and NOD activation assays were analyzed using a one-way ANOVA with Dunnett's multiple comparisons test compared to the DMSO control. Longitudinal tumor growth assays were analyzed using linear mixed-effects model analysis on the log transformed data. ns=not significant, *P<0.05, **P<0.01, ***P<0.001, ****P<0.0001.
FIG. 7(A-B). NOD2 agonist TT030 activates cytokine production in vitro. A-B, Measurements of secreted cytokine levels from human peripheral mononuclear blood cells (PMBCs) treated with the indicated compounds for 24 h without or with lipopolysaccharide (LPS). Cytokine secretion assays and NOD activation assays were analyzed using a one-way ANOVA with Dunnett's multiple comparisons test compared to the DMSO control. *P<0.05, **P<0.01.
Cytokine release assay. Human PMBCs were obtained from whole blood donated by healthy individuals via the Scripps Normal Blood Donor Service. Whole blood was diluted 1:1 with phosphate-buffered saline (PBS) containing 2% FBS and then layered onto Lymphoprep (STEMCELL Technologies, 07851) in SepMate-50 isolation tubes (STEMCELL Technologies, 85480). The discontinuous gradient was centrifuged for 10 min at 1,200×g, and mononuclear cells were removed by pouring off. Mononuclear cells were then resuspended in PBS+2% FBS and centrifuged for 3 min at 200×g twice before further use. Washed mononuclear cells were then aliquoted at 5×10^5 cells per well of a 48-well plate with 300 μL RPMI containing 10% FBS (complete RPMI). Cells were then diluted with 100 μL complete RPMI containing 50 μM of the test compound (10 μM final concentration). Then, 100 μL complete RPMI (-LPS) or 100 μL complete RPMI containing […] LPS (+LPS, 10 ng mL^−1 final concentration) was added. Cells were incubated overnight at 37° C. in 5% CO2, and conditioned medium was harvested and centrifuged for 5 min at 500×g to remove residual cells. Samples were used directly for cytokine analysis with the LEGENDPlex Human Inflammatory Panel 1 (BioLegend, 740809) according to the manufacturer's protocol. For analysis, 25 μL of the conditioned medium was used for −LPS samples, and 12.5 μL was used for the +LPS samples. On-bead ELISA readouts were measured using the standard PE and APC detection filter parameters on a ZE5 flow cytometer (Bio-Rad; 405, 488, 561, and 640 lasers) in the Scripps Research Flow Cytometry Core Facility. Raw data files were then imported into the LEGENDPlex Cloud Data Analysis software suite (BioLegend) and analyzed using the manufacturer's pre-set parameters.

[2] = system: B16-F10 subcutaneous tumors; experiment: B16-F10 tumor growth assay with anti-PD-L1 co-treatment; format: in vivo, mice; conditions: for B16 tumor growth over time: wild-type C57BL/6 mice, 100 μg α-PD-L1 and 100 μg compound i.p. every other day
Procedure: as §1
Animals. Specific pathogen-free, eight-week old male C57BL/6J (B6, 000664) and B6.129S1—Nod2^tm1Flv/J (Nod2^−/−, 005763 from Flavell Lab, Yale School of Medicine) were obtained from The Jackson Laboratory. Animals were housed in autoclaved caging with SaniChip bedding and enrichment for nest building on a 12-hour light/dark cycle. Animals were provided gamma-irradiated chow (LabDiet, 5053) and sterile drinking water ad libitum. Animal care and experiments were conducted in accordance with NIH guidelines and approved by the Institutional Animal Care and Use Committee at Scripps Research (Protocol AUP-21-095).
Tumor growth assay. B16-F10 cells were subcultured on the day prior to harvesting for tumor inoculation. On the day of injection, cells were harvested using TrypLE Express, washed and resuspended in cold PBS, and counted with a hemocytometer. Cells were then resuspended at 2×10^6 cells mL^−1 in PBS and mixed 1:1 with Matrigel matrix (Corning; growth factor reduced, 356231). Cell suspensions were kept on ice prior to injection. Animals were anesthetized using 3% isoflurane, and their right flank was shaved with hair clippers. Animals were then subcutaneously injected with 100 μL of the cell suspension on their mid-right flank (1×10^5 cells per injection). Once tumors were established at roughly 25-100 mm^3, tumor volume was measured every other day. Digital calipers were used to measure the length and width of each tumor, and tumor volume was calculated as length×[…], where width was the smaller of the two measurements. […]

Row | SMILES | IL-12p70 secretion ([1]; with and without LPS) | IFNγ levels ([1]; without or with LPS) | IL-18 production ([1]; without or with LPS) | IL-23 production ([1]; without or with LPS) | interleukin-1 beta (IL-1B) in the medium ([1]; without or with LPS) | tumor necrosis factor alpha (TNFα) in the medium ([1]; without or with LPS) | Anti-tumor activity in Nod2−/− mice ([2]; Nod2−/− vs. wild-type C57BL/6 mice, 100 μg α-PD-L1 and 100 μg TT030 every other day) | B16 tumor growth over time [2]
1 | CCOC(=O)CC[C@@H](NC(=O)[C@@H](NC(=O)c1c(C)nn(-c2cc[nH]c(=O)c2)c1C)C(C)C)C(=O)OCC [TT030, Diethyl (3,5-dimethyl-1-(2-oxo-1,2-dihydropyridin-4-yl)-1H-pyrazole-4-carbonyl)-L-valyl-D-glutamate] | increase | increased | production | production | equivalent concentrations | equivalent concentrations | loss in the anti-tumor activity | anti-tumor activity was also observed; also recorded: equivalent anti-tumor activity as MDP
2 | CC(=O)N[C@H]1C(O)O[C@H](CO)[C@@H](O)[C@@H]1O[C@H](C)C(=O)N[C@@H](C)C(=O)N[C@H](CCC(=O)O)C(N)=O (stereo partly drawn) [MDP, (4R)-4-((2S)-2-((2R)-2-(((3R,4R,5S,6R)-3-acetamido-2,5-dihydroxy-6-(hydroxymethyl)tetrahydro-2H-pyran-4-yl)oxy)propanamido)propanamido)-5-amino-5-oxopentanoic acid, reference compound] |  | increased |  |  | significant increase | significant increase |  | significantly inhibited tumor growth
